Assay results: US20260193268A1, “TRICYCLIC PI3Ka INHIBITOR, PREPARATION METHOD THEREFOR, AND PHARMACEUTICAL USE THEREOF” (WIGEN BIOMEDICINE TECHNOLOGY (SHANGHAI) CO., LTD., priority 2022, published 2026)
Read-outs that look alike come from different tables or passages of the source.

Columns and labels:
[1] = test system: HCC1954 cells (with PI3Kα H1047R mutation); experiment: In vitro inhibition of HCC1954 cell proliferation (CellTiter-Lumi); type: cell-based; conditions: HCC1954 cells, 144 h, CellTiter-Lumi, numeric values, read-out: Inhibitory activity against HCC1954 cells (IC50)
Experimental: Assay for In Vitro Inhibition of HCC1954 Cell Proliferation by Compounds of the Present Disclosure
The growth of the cells was evaluated, and the IC50 for the inhibition of cell growth by the compounds was calculated.

[2] = test system: MCF-7 cells (with PI3Kα E545K mutation); experiment: In vitro inhibition of MCF-7 cell proliferation (CellTiter-Lumi); type: cell-based; conditions: numeric values, read-out: Inhibitory activity against MCF-7 cells (IC50)
Experimental: Biological Example 3. Assay for In Vitro Inhibition of MCF-7 Cell Proliferation by Compounds of the Present Disclosure
MCF-7 cells (with PI3Kα E545K mutation) were seeded into a 384-well plate (Fisher 142762) at 2000 cells per well. The next day, serially diluted compounds were added, and 144 h after the addition, CellTiter-Lumi (Beyotime C0068XL) was added to measure the ATP content in the cells. The growth of the cells was evaluated, and the IC50 for the inhibition of cell growth by the compounds was calculated.

Row | SMILES | IC50 ([1]; Homo sapiens, HCC1954, 144 h) [µM] | IC50 ([2]; Homo sapiens, MCF7, 144 h) [µM] | IC50 [1] [µM] | IC50 ([2]; 144 h) [µM]
1 | C=CC(=O)Nc1ccc(N2CCC(N3CCN(c4ccc5c(c4)-c4nc(N6C(=O)OC[C@H]6C(F)F)cn4CCO5)CC3)C2)cc1 (single isomer, unassigned) [Compound 29] | 0.075 | 0.013 |  | 
2 | Cc1nc(NC(=O)N2CCC[C@H]2C(N)=O)sc1-c1ccnc(C(C)(C)C(F)(F)F)c1 [Alpelisib, reference compound] | 1.61 | 0.216 |  | 
3 | CC(C)=CC(=O)CCC(=O)N1CCN(Cc2cc3nc(-c4cccc5[nH]ncc45)nc(N4CCOCC4)c3s2)CC1 [CNX1351] |  |  | 1.19 | 0.29
4 | C=CC(=O)N1CC[C@H](C(=O)NCC(=O)N2CCN(c3ccc4c(c3)-c3nc(N5C(=O)OC[C@H]5C(F)F)cn3CCO4)CC2)C1 [Compound 3] | 0.282 | 0.062 |  | 
5 | C=CC(=O)N1CCC(C(=O)NCC(=O)N2CCN(c3ccc4c(c3)-c3nc(N5C(=O)OC[C@H]5C(F)F)cn3CCO4)CC2)CC1 [Compound 6] | 0.663 | 0.099 |  | 
6 | C=CC(=O)N1CCC(CCC(=O)N2CCN(c3ccc4c(c3)-c3nc(N5C(=O)OC[C@H]5C(F)F)cn3CCO4)CC2)CC1 [Compound 7] | 0.925 | 0.106 |  | 
7 | C=CC(=O)N1CCC(N2CCC(CN3CCN(c4ccc5c(c4)-c4nc(N6C(=O)OC[C@H]6C(F)F)cn4CCO5)CC3)CC2)CC1 [Compound 8] | > 1 | 0.063 |  | 
8 | C=CC(=O)N1CCC(CN2CCC(N3CCN(c4ccc5c(c4)-c4nc(N6C(=O)OC[C@H]6C(F)F)cn4CCO5)CC3)CC2)CC1 [Compound 9] | > 1 | 0.075 |  | 
9 | C=CC(=O)N1CCC(N2CCC(N3CCN(c4ccc5c(c4)-c4nc(N6C(=O)OC[C@H]6C(F)F)cn4CCO5)CC3)CC2)CC1 [Compound 10] | > 1 | 0.146 |  | 
10 | C=CC(=O)Nc1ccc(CCC(=O)N2CCN(c3ccc4c(c3)-c3nc(N5C(=O)OC[C@H]5C(F)F)cn3CCO4)CC2)cc1 [Compound 11] | 0.298 | 0.058 |  | 
11 | C=CC(=O)Nc1ccc(N2CCC(CN3CCN(c4ccc5c(c4)-c4nc(N6C(=O)OC[C@H]6C(F)F)cn4CCO5)CC3)CC2)cc1 [Compound 12] | 0.399 | 0.049 |  | 
12 | C=CC(=O)N1CCN(CCC(=O)N2CCN(c3ccc4c(c3)-c3nc(N5C(=O)OC[C@H]5C(F)F)cn3CCO4)CC2)CC1 [Compound 13] | 0.862 | 0.04 |  | 
13 | C=CC(=O)N1CCN(CCCC(=O)N2CCN(c3ccc4c(c3)-c3nc(N5C(=O)OC[C@H]5C(F)F)cn3CCO4)CC2)CC1 [Compound 15] | 0.128 | 0.014 |  | 
14 | C=CC(=O)Nc1ccc(CCN2CCN(c3ccc4c(c3)-c3nc(N5C(=O)OC[C@H]5C(F)F)cn3CCO4)CC2)cc1 [Compound 16] | 0.063 | 0.007 |  | 
15 | C=CC(=O)Nc1ccc(N2CC3(CCN(c4ccc5c(c4)-c4nc(N6C(=O)OC[C@H]6C(F)F)cn4CCO5)CC3)C2)cc1 [Compound 18] | 0.068 | 0.025 |  | 
16 | C=CC(=O)N1CCC(CCN2CC3(C2)CN(c2ccc4c(c2)-c2nc(N5C(=O)OC[C@H]5C(F)F)cn2CCO4)C3)CC1 [Compound 19] | > 1 | 0.217 |  | 
17 | C=CC(=O)Nc1ccc(N2CC[C@H](CN3CCN(c4ccc5c(c4)-c4nc(N6C(=O)OC[C@H]6C(F)F)cn4CCO5)CC3)C2)cc1 [Compound 20] | 0.438 | 0.069 |  | 
18 | C=CC(=O)N1CC[C@@H](C(=O)N2CC3(CCN(c4ccc5c(c4)-c4nc(N6C(=O)OC[C@H]6C(F)F)cn4CCO5)CC3)C2)C1 [Compound 21] | 0.251 | 0.023 |  | 
19 | C=CC(=O)N1CC[C@H](CN2CC3(CCN(c4ccc5c(c4)-c4nc(N6C(=O)OC[C@H]6C(F)F)cn4CCO5)CC3)C2)C1 [Compound 22] | > 1 | 0.143 |  | 
20 | C=CC(=O)N1CC[C@@H](CN2CC3(CCN(c4ccc5c(c4)-c4nc(N6C(=O)OC[C@H]6C(F)F)cn4CCO5)CC3)C2)C1 [Compound 23] | > 1 | 0.186 |  | 
21 | C=CC(=O)N1CCC(CN2CC3(CCN(c4ccc5c(c4)-c4nc(N6C(=O)OC[C@H]6C(F)F)cn4CCO5)CC3)C2)CC1 [Compound 24] | > 1 | 1.12 |  | 
22 | C=CC(=O)Nc1ccc(N2CC(CN3CC4(C3)CN(c3ccc5c(c3)-c3nc(N6C(=O)OC[C@H]6C(F)F)cn3CCO5)C4)C2)cc1 [Compound 25] | > 1 | 0.39 |  | 
23 | C=CC(=O)N1CCN(CCCCN2CCN(c3ccc4c(c3)-c3nc(N5C(=O)OC[C@H]5C(F)F)cn3CCO4)CC2)CC1 [Compound 26] | 0.248 | 0.083 |  | 
24 | C=CC(=O)Nc1ccc(N2CCC(N3CCN(c4ccc5c(c4)-c4nc(N6C(=O)OC[C@H]6C(F)F)cn4CCO5)CC3)C2)cc1 (stereo partly shown) [Compound 28] | 0.18 | 0.018 |  | 

Row | SMILES | IC50 ([1]; Homo sapiens, HCC1954, 144 h) [µM] | IC50 ([2]; Homo sapiens, MCF7, 144 h) [µM] | IC50 [1] [µM] | IC50 ([2]; 144 h) [µM]
25 | C=CC(=O)N1CC[C@@H](CN2CC(CN3CCN(c4ccc5c(c4)-c4nc(N6C(=O)OC[C@H]6C(F)F)cn4CCO5)CC3)C2)C1 [Compound 37] | 0.75 | 0.075 |  | 
26 | C=CC(=O)Nc1ccc(CN2CC(N3CCN(c4ccc5c(c4)-c4nc(N6C(=O)OC[C@H]6C(F)F)cn4CCO5)CC3)C2)cc1 [Compound 39] | 0.068 | 0.011 |  | 
27 | C=CC(=O)Nc1ccc(CN2CC3(C2)CN(c2ccc4c(c2)-c2nc(N5C(=O)OC[C@H]5C(F)F)cn2CCO4)C3)cc1 [Compound 40] | 0.162 | 0.034 |  | 
28 | C=CC(=O)Nc1ccc(CN2C[C@@H]3CN(c4ccc5c(c4)-c4nc(N6C(=O)OC[C@H]6C(F)F)cn4CCO5)C[C@@H]3C2)cc1 [Compound 41] | 0.191 | 0.04 |  | 
29 | C=CC(=O)Nc1ccc(CN2CC3(CCN(c4ccc5c(c4)-c4nc(N6C(=O)OC[C@H]6C(F)F)cn4CCO5)CC3)C2)cc1 [Compound 43] | 0.184 | 0.019 |  | 
30 | C=CC(=O)Nc1ccc(CN2CCN(c3ccc4c(c3)-c3nc(N5C(=O)OC[C@H]5C(F)F)cn3CCO4)CC2)cc1 [Compound 44] | 0.644 | 0.151 |  | 
31 | C=C(C)C(=O)Nc1ccc(N2CC(CN3CCN(c4ccc5c(c4)-c4nc(N6C(=O)OC[C@H]6C(F)F)cn4CCO5)CC3)C2)cc1 [Compound 45] | > 1 | 0.244 |  | 
32 | C=C(F)C(=O)Nc1ccc(N2CC(CN3CCN(c4ccc5c(c4)-c4nc(N6C(=O)OC[C@H]6C(F)F)cn4CCO5)CC3)C2)cc1 [Compound 46] | 0.306 | 0.074 |  | 
33 | C=CC(=O)N1CCC(N2CC[C@H](CN3CCN(c4ccc5c(c4)-c4nc(N6C(=O)OC[C@H]6C(F)F)cn4CCO5)CC3)C2)CC1 [Compound 59] | 0.872 | 0.197 |  | 
34 | C=CC(=O)N1CC(N2CC(CN3CCN(c4ccc5c(c4)-c4nc(N6C(=O)OC[C@H]6C(F)F)cn4CCO5)CC3)C2)C1 [Compound 60] | 0.174 | 0.013 |  | 
35 | C=CC(=O)N1CC(CN2CCC(N3CCN(c4ccc5c(c4)-c4nc(N6C(=O)OC[C@H]6C(F)F)cn4CCO5)CC3)CC2)C1 [Compound 64] | 0.314 | 0.033 |  | 
36 | C=CC(=O)Nc1ccc(N2CC[C@@H](CN3CCN(c4ccc5c(c4)-c4nc(N6C(=O)OC[C@H]6C(F)F)cn4CCO5)CC3)C2)cc1 [Compound 85] | 0.303 | 0.088 |  | 
37 | C=CC(=O)N1CC(C(=O)N2CC3(CCN(c4ccc5c(c4)-c4nc(N6C(=O)OC[C@H]6C(F)F)cn4CCO5)CC3)C2)C1 [Compound 86] | 0.126 | 0.017 |  | 
38 | C=CC(=O)N1CC(N2CC[C@@H](CN3CCN(c4ccc5c(c4)-c4nc(N6C(=O)OC[C@H]6C(F)F)cn4CCO5)CC3)C2)C1 [Compound 87] | 0.318 | 0.037 |  | 
39 | C=CC(=O)N1CC(N2CCC(CN3CC=C(c4ccc5c(c4)-c4nc(N6C(=O)OC[C@H]6C(F)F)cn4CCO5)CC3)CC2)C1 [Compound 88] | 0.212 | 0.032 |  | 
40 | C=CC(=O)N1CCC(N2CCC(N3CCN(c4ccc5c(c4)-c4nc(N6C(=O)OC[C@H]6C(F)F)cn4CCO5)CC3)C2)CC1 (stereo partly shown) [Compound 89] | 0.23 | 0.041 |  | 
41 | C=CC(=O)N1CC(N2CCC(N3CCN(c4ccc5c(c4)-c4nc(N6C(=O)OC[C@H]6C(F)F)cn4CCO5)CC3)C2)C1 (stereo partly shown) [Compound 90] | 0.225 | 0.012 |  | 
42 | C=CC(=O)N1CC(CN2CC(N3CCN(c4ccc5c(c4)-c4nc(N6C(=O)OC[C@H]6C(F)F)cn4CCO5)CC3)C2)C1 [Compound 91] | 0.154 | 0.011 |  | 
43 | C=CC(=O)N1CC(N2CC[C@H](CN3CCN(c4ccc5c(c4)-c4nc(N6C(=O)OC[C@H]6C(F)F)cn4CCO5)CC3)C2)C1 [Compound 92] | 0.2 | 0.02 |  | 
44 | C=CC(=O)Nc1ccc(N2CC3(CCN(c4ccc5c(c4)-c4nc(N6C(=O)OC[C@H]6C(F)F)cn4CCO5)C3)C2)cc1 [Compound 93] | 0.551 | 0.076 |  | 
45 | C=CC(=O)Nc1ccc(N2CCC3(CCN(c4ccc5c(c4)-c4nc(N6C(=O)OC[C@H]6C(F)F)cn4CCO5)CC3)C2)cc1 [Compound 94] | 0.3 | 0.076 |  | 
46 | C=CC(=O)Nc1ccc(N2CC(N3CCN(c4cc5c(cc4OC)OCCn4cc(N6C(=O)OC[C@H]6C(F)F)nc4-5)CC3)C2)cc1 [Compound 98] | 0.059 | 0.0067 |  | 
47 | C=C(F)C(=O)Nc1ccc(N2CC(N3CCN(c4ccc5c(c4)-c4nc(N6C(=O)OC[C@H]6C(F)F)cn4CCO5)CC3)C2)cc1 [Compound 99] | 0.053 | 0.011 |  | 
